Results: US12441736B2, “KIF18A inhibitors” (AMGEN INC., priority 2018, dated 2025)

target: T1, Recombinant human KIF18A (1-467 His-tagged) protein (Homo sapiens, UniProt Q8NI77); test: KIF18A Enzyme Assay: microtubule-stimulated ATPase activity (ADP-Glo); format: biochemical; conditions: 30 nM KIF18A, 30 μg/mL pig microtubules, 75 μM ATP, ADP-Glo luminescence
T1 construct: Recombinant human KIF18A (1-467 His-tagged) protein; His; made in house
Summary of the method: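 IC50 comes from a four-parameter logistic fit over a 22-point, 2-fold series, with ADP quantified by ADP-Glo luminescence. Reactions ran at room temperature: compound plus 30 nM KIF18A(1-467)-His for 15 min, then 75 μM ATP (Km) for 15 min. The buffer held pig microtubules at 30 μg/mL and 1 μM taxol.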

T1 sequence (Q8NI77 1-467): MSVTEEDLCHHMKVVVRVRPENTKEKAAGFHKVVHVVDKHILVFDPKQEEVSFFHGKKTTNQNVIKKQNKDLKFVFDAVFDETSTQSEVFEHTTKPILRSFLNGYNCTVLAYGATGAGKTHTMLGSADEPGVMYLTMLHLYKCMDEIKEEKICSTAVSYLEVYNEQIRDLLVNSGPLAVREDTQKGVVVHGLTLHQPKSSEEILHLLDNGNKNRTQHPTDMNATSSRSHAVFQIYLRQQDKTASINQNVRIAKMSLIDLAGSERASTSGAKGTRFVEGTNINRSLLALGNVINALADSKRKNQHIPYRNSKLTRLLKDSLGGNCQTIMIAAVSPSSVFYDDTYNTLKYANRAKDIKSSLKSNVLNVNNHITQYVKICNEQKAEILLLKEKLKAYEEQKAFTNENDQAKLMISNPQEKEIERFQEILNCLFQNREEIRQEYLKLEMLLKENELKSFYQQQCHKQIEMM
T1 sequence (P02550 whole entry partner): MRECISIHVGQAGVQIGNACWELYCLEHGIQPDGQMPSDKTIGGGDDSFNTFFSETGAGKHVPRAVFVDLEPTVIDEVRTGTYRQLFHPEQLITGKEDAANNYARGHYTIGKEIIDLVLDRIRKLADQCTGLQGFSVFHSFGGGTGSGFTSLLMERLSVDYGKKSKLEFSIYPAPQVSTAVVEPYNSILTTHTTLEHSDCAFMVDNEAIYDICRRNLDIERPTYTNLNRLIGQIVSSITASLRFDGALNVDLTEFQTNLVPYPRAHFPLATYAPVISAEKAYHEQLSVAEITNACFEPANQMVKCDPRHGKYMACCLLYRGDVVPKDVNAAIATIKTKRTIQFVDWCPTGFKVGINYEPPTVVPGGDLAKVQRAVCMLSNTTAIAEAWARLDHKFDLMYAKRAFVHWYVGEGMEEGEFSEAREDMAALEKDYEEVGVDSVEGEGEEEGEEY
T1 sequence (P02554 whole entry partner): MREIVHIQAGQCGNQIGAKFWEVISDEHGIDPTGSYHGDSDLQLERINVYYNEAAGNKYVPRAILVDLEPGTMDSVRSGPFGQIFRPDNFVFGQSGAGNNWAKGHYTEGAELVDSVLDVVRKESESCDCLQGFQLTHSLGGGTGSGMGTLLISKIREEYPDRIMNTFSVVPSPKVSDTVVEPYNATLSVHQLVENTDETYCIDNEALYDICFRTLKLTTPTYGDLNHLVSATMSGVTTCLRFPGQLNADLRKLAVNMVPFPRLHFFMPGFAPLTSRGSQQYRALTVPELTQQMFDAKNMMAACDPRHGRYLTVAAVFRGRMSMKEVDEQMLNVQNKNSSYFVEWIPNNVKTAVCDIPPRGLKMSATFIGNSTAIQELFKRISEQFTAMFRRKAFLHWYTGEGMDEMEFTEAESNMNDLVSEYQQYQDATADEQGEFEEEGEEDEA

| Structure (SMILES) | IC50 [µM] |
| --- | --- |
| C[C@](O)(c1ccc(C(=O)Nc2cccc(N3CCOCC3)n2)c(N2CCC3(CC2)CC3)n1)C(F)(F)F [Example 142, 2-(6-azaspiro[2.5]oct-6-yl)-N-(6-(4-morpholinyl)-2-pyridinyl)-6-((2S)-1,1,1-trifluoro-2-hydroxy-2-propanyl)-3-pyridinecarboxamide] | 0.0575 |
| CC(C)(CO)Nc1ccc(C(=O)Nc2cccc(N3CCN(C(=O)OC(C)(C)C)CC3)n2)c(N2CCC3(CC2)CC3)n1 [Example 185, 2-methyl-2-propanyl 4-(6-(((2-(6-azaspiro[2.5]octan-6-yl)-6-((1-hydroxy-2-methyl-2-propanyl)amino)-3-pyridinyl)carbonyl)amino)-2-pyridinyl)-1-piperazinecarboxylate] | 0.592 |
| CC(C)(CO)Nc1ccc(C(=O)Nc2cccc(N3CCCC(NC(=O)OC(C)(C)C)C3)n2)c(N2CCC3(CC2)CC3)n1 (stereo not drawn) [Example 234, tert-butyl (1-(6-(6-((1-hydroxy-2-methylpropan-2-yl)amino)-2-(6-azaspiro[2.5]octan-6-yl)nicotinamido)pyridin-2-yl)piperidin-3-yl)carbamate] | 1.52 |
| CC(C)(CO)Nc1ccc(C(=O)Nc2cccc(N3CCN(C4CCC4)CC3)n2)c(N2CCC3(CC2)CC3)n1 [Example 191, 2-(6-azaspiro[2.5]octan-6-yl)-N-(6-(4-cyclobutyl-1-piperazinyl)-2-pyridinyl)-6-((1-hydroxy-2-methyl-2-propanyl)amino)-3-pyridinecarboxamide] | 1.24 |
| C[C@@H]1CN(c2cccc(NC(=O)c3ccc([C@@](C)(O)CO)nc3N3CCC4(CC3)CC4)n2)CCO1 [Example 168, 2-(6-azaspiro[2.5]octan-6-yl)-6-((2R)-1,2-dihydroxy-2-propanyl)-N-(6-((2R)-2-methyl-4-morpholinyl)-2-pyridinyl)-3-pyridinecarboxamide] | 0.0887 |
| Cc1cc(NC(=O)c2ccc(NC(C)(C)CO)nc2N2CCC3(CC2)CC3)nc(N2CCC[C@@H](O)C2)c1 [Example 227, 2-(6-azaspiro[2.5]octan-6-yl)-6-((1-hydroxy-2-methyl-2-propanyl)amino)-N-(6-((3R)-3-hydroxy-1-piperidinyl)-4-methyl-2-pyridinyl)-3-pyridinecarboxamide] | 0.143 |
| CNS(=O)(=O)c1ccc(C(=O)Nc2cccc(N3CCO[C@H](C)C3)n2)c(N2CCC3(CC2)CC3)n1 [Example 223, (R)-N-(6-(2-methylmorpholino)pyridin-2-yl)-6-(N-methylsulfamoyl)-2-(6-azaspiro[2.5]octan-6-yl)nicotinamide] | 0.0794 |
| CC(C)(C)NS(=O)(=O)c1cccc(NC(=O)c2ccc(F)nc2N2CCC3(CC2)CC3)n1 [Example 173, 2-(6-azaspiro[2.5]octan-6-yl)-6-fluoro-N-(6-((2-methyl-2-propanyl)sulfamoyl)-2-pyridinyl)-3-pyridinecarboxamide] | 0.643 |
| CC(C)(CO)Nc1ccc(C(=O)Nc2cccc(N3CCOCC3)n2)c(N2CCC3(CC2)CC3)n1 [Example 127, 2-(6-azaspiro[2.5]oct-6-yl)-6-((2-hydroxy-1,1-dimethylethyl)amino)-N-(6-(4-morpholinyl)-2-pyridinyl)-3-pyridinecarboxamide] | 0.0525 |
| CC(C)(CO)Nc1ccc(C(=O)Nc2cccc(N3CCCC3(C)CO)n2)c(N2CCC3(CC2)CC3)n1 (stereo not drawn) [Example 231, 6-((1-hydroxy-2-methylpropan-2-yl)amino)-N-(6-(2-(hydroxymethyl)-2-methylpyrrolidin-1-yl)pyridin-2-yl)-2-(6-azaspiro[2.5]octan-6-yl)nicotinamide] | 0.134 |
| Cc1cc(NC(=O)c2ccc(N3CC(O)CC3(C)C)nc2N2CCC3(CC2)CC3)nc(N2CCOCC2)c1 (stereo not drawn) [Example 212, 6-(4-hydroxy-2,2-dimethylpyrrolidin-l-yl)-N-(4-methyl-6-morpholinopyridin-2-yl)-2-(6-azaspiro[2.5]octan-6-yl)nicotinamide] | 0.54 |
| C[C@@H]1COCCN1c1cccc(NC(=O)c2ccc(NC(C)(C)CO)nc2N2CCC3(CC2)CC3)n1 [Example 179, 2-(6-azaspiro[2.5]octan-6-yl)-6-((1-hydroxy-2-methyl-2-propanyl)amino)-N-(6-((3R)-3-methyl-4-morpholinyl)-2-pyridinyl)-3-pyridinecarboxamide] | 0.098 |
| C[C@@H]1CN(c2cccc(NC(=O)c3ccc(CS(C)(=O)=O)nc3N3CCC4(CC3)CC4)n2)CCO1 [Example 239, 2-(6-azaspiro[2.5]octan-6-yl)-N-(6-((2R)-2-methyl-4-morpholinyl)-2-pyridinyl)-6-((methylsulfonyl)methyl)-3-pyridinecarboxamide] | 0.0681 |
| O=C(Nc1cccc(S(=O)(=O)N2CCCCC2)n1)c1ncc(NC2(CO)CC2)nc1N1CCC2(CC1)CC2 [Example 101, 3-(6-azaspiro[2.5]oct-6-yl)-5-((1-(hydroxymethyl)cyclopropyl)amino)-N-(6-(1-piperidinylsulfonyl)-2-pyridinyl)-2-pyrazinecarboxamide] | 0.106 |
| CCC1CN(c2cccc(NC(=O)c3ccc(NC(C)(C)CO)nc3N3CCC4(CC3)CC4)n2)CCO1 (stereo not drawn) [Example 204, N-(6-(2-ethylmorpholino)pyridin-2-yl)-6-((1-hydroxy-2-methylpropan-2-yl)amino)-2-(6-azaspiro[2.5]octan-6-yl)nicotinamide] | 0.161 |
| CC(C)(CO)Nc1ccc(C(=O)Nc2cccc(N3CCC[C@H](O)C3)n2)c(N2CCC3(CC2)CC3)n1 [Example 228, 2-(6-azaspiro[2.5]octan-6-yl)-6-((1-hydroxy-2-methyl-2-propanyl)amino)-N-(6-((3S)-3-hydroxy-1-piperidinyl)-2-pyridinyl)-3-pyridinecarboxamide] | 0.0697 |
| C[C@@H]1CN(c2cccc(NC(=O)c3ccc([C@](C)(O)CO)nc3N3CCC4(CC3)CC4)n2)CCO1 [Example 167, 2-(6-azaspiro[2.5]octan-6-yl)-6-((2S)-1,2-dihydroxy-2-propanyl)-N-(6-((2R)-2-methyl-4-morpholinyl)-2-pyridinyl)-3-pyridinecarboxamide] | 0.0822 |
| C[C@@H]1CN(c2cccc(NC(=O)c3cnc(NC(C)(C)CO)cc3N3CCC4(CC3)CC4)n2)CCO1 [Example 243, (R)-6-((1-hydroxy-2-methylpropan-2-yl)amino)-N-(6-(2-methylmorpholino)pyridin-2-yl)-4-(6-azaspiro[2.5]octan-6-yl)nicotinamide] | 0.44 |
| CC(C)(CO)Nc1ccc(C(=O)Nc2cccc(NCCO)n2)c(N2CCC3(CC2)CC3)n1 [Example 226, 2-(6-azaspiro[2.5]octan-6-yl)-N-(6-((2-hydroxyethyl)amino)-2-pyridinyl)-6-((1-hydroxy-2-methyl-2-propanyl)amino)-3-pyridinecarboxamide] | 0.392 |
| C[C@H]1CN(c2cccc(NC(=O)c3ccc(NC(C)(C)CO)nc3N3CCC4(CC3)CC4)n2)CCO1 [Example 132, 2-(6-azaspiro[2.5]oct-6-yl)-6-((2-hydroxy-1,1-dimethylethyl)amino)-N-(6-((2S)-2-methyl-4-morpholinyl)-2-pyridinyl)-3-pyridinecarboxamide] | 0.0821 |
| CC(C)(CO)Nc1ccc(C(=O)Nc2cccc(N3CCC(O)CC3)n2)c(N2CCC3(CC2)CC3)n1 [Example 215, 2-(6-azaspiro[2.5]octan-6-yl)-6-((1-hydroxy-2-methyl-2-propanyl)amino)-N-(6-(4-hydroxy-1-piperidinyl)-2-pyridinyl)-3-pyridinecarboxamide] | 0.33 |
